Experimental data: patent US20040022788A1, “Compositions and methods for promoting or inhibiting angiogenesis” (priority 1998, published 2004)

Key:
[1] = test system: HUVEC; experiment: Direct binding of 125I-labeled plasminogen or angiostatin to endothelial cells, Scatchard analysis; set-up: species or system human; conditions: 125I-labeled ligand, 1 h at 4° C., read-out: apparent dissociation constant (Kd)
Procedure: FIGS. 1A and 1B. Direct binding assay and Scatchard analysis of plasminogen and angiostatin with endothelial cells. HUVEC were plated at a density of 10,000 cells/well and incubated with increasing concentrations of ^125I-labeled-plasminogen or angiostatin. FIG. 1A. ^125I-labeled plasminogen binding was concentration-dependent and saturable with an apparent dissociation constant ([…]) of 158 nM and 870,000 sites/cell. FIG. 1B. […] Error bars represent standard deviation.
Binding Assays. Ligands were radioiodinated by using Iodobeads (Pierce), repurified on L-lysine-Sepharose, eluted with 100 mM ε-aminocaproic acid, and dialyzed in PBS, pH 7.0 before use in binding assays. HUVEC were plated at a density of 5,000 or 10,000 cells/well and incubated with increasing concentrations of ^125I-labeled ligand in media containing 1% BSA for 1 h at 4° C. in 96-well plates. Wells were washed, and remaining bound radioactivity was quantified by using an LKB 1272 γ-radiation counter. Nonspecific binding was measured in the presence of excess unlabeled ligand.

[2] = target: T1, recombinant alpha subunit of human ATP synthase (Homo sapiens, UniProt P25705); experiment: Ligand blot binding to the recombinant alpha subunit of ATP synthase; conditions: ligand blot
T1 construct: His tag; made in house; host or cells: E. coli BL21DE3
T1 sequence (P25705 44-553): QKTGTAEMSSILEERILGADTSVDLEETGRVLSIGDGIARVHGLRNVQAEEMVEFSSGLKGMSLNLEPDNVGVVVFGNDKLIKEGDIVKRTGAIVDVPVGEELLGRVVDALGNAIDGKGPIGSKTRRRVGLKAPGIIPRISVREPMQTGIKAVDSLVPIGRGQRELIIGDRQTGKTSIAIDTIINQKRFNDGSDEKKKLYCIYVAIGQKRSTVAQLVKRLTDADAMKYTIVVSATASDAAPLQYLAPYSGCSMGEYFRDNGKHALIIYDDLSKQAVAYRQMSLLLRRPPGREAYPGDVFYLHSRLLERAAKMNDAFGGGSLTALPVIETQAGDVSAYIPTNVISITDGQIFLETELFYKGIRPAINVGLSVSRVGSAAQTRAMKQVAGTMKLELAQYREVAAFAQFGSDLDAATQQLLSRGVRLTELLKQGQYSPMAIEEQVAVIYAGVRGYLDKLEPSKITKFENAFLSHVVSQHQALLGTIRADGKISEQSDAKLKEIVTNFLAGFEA
Procedure: FIGS. 7A-7E. Angiostatin binding to the recombinant alpha subunit of human ATP synthase. The alpha subunit of human ATP synthase was cloned and expressed in E. coli and purified using Qiagen's nickel-Sepharose protein purification system before dialyzing in phosphate buffered saline (PBS), pH 7.0. Recombinant protein was electrophoresed on 5-15% SDS-PAGE, electroblotted onto Immobilon™ membrane and incubated 18 h in 10 mM Tris-HCl, 0.15M NaCl, 0.05% NP40, pH 7.5 (TSN) containing ^125I-angiostatin. For competition studies, unlabeled ligand was added 4 h prior to radiolabeled ligand. Blots were washed in TSN buffer containing 0.05% Tween80 and bound radioactivity was quantified on a Molecular Dynamics PhosphorImager™.
Purification of the alpha-Subunit of ATP Synthase. Competent E. coli BL21DE3 were transformed with the pET24a(+) vector containing the alpha subunit, plated on 2× Bacto-yeast tryptone (YT) agarose, and grown overnight at 37° C. Twenty milliliters of 2× YT containing […] kanamycin was inoculated with one colony and grown overnight at 37° C. (200 rpm). A 1-liter culture (2× YT, […] kanamycin) was inoculated with 20 ml of the noninduced overnight culture and grown at 37° C. to an OD of 0.6 at a wavelength of 600 nm. Isopropyl […] was added to a final concentration of 1 mM and grown for an additional 3 h. Cells were harvested by centrifugation at 8,000 rpm for 10 min and stored overnight at −20° C. Lysates were prepared under denaturing conditions and batch-purified by using Qiagen Ni-NTA agarose. Resulting protein was dialyzed against PBS, pH 7.0 for use in all experiments.

[3] = test system: HUVEC; experiment: HUVEC proliferation assay (MTS/PMS); format: cell-based, human; conditions: for Percent proliferation inhibited, ±SEM, Without Antibody: 24 h
Procedure: Proliferation Assay. HUVEC were plated at a density of 5,000 cells/well in media depleted of FCS overnight to allow the cells to become quiescent. […] In some experiments antibody directed against the alpha subunit of ATP synthase derived from E. coli was also added at a dilution of 1:10. MTS/PMS [(3-(4,5-dimethylthiazol-2-yl)-5-(3-carboxymethoxyphenyl)-2-(4-sulfophenyl)-2H-tetrazolium inner salt/phenazine methosulfate] solution was added after 24 h, and the absorbance of formazan was quantitated on a Thermomax plate reader at a wavelength of 490 nm according to the manufacturer's specifications (Promega). The absorbance values used to calculate the percent proliferation of the cells ranged from 0.81 for untreated, 0.60 for treated, and 0.47 for baseline quiescent cells.
Anti-alpha-subunit ATP synthase antibody derived from E. coli was added concomitantly at a dilution of 1:10. MTS/PMS solution was added and absorbance of formazan was quantitated according to the manufacturer's specifications. Results represent three separate experiments performed in duplicate with SEM. Percent recovery represents the ability of the anti-alpha-subunit ATP synthase antibody to block the antiproliferative effect of angiostatin, and thereby restore proliferation to an average of 81% of that obtained with the control cells.

Q: Which Kd [1] does the source give for angiostatin here?
A: 245 nM

Q: And the “binding of 125I-labeled ligand to recombinant alpha subunit” value [2]?
A: bound

Q: What about the “Percent proliferation inhibited, ±SEM, With antibody” value ([3]; angiostatin 0.5 μM plus anti-alpha subunit ATP synthase antibody 1:10) of the same substance?
A: 1 ± 0.2%

Q: And the “Percent proliferation inhibited, ±SEM, Without Antibody” value ([3]; angiostatin 0.5 μM)?
A: 10 ± 1.4%

Q: What about the “Percent proliferation inhibited, ±SEM, With antibody” value ([3]; angiostatin 0.75 μM plus anti-alpha subunit ATP synthase antibody 1:10) of the same substance?
A: 5 ± 4.1%

Q: And the “Percent proliferation inhibited, ±SEM, Without Antibody” value ([3]; angiostatin 0.75 μM)?
A: 25 ± 4.2%

Q: And the “Percent proliferation inhibited, ±SEM, With antibody” value ([3]; angiostatin 1.0 μM plus anti-alpha subunit ATP synthase antibody 1:10)?
A: 6 ± 0.8%

Q: What about the “Percent proliferation inhibited, ±SEM, Without Antibody” value ([3]; angiostatin 1.0 μM) of the same substance?
A: 23 ± 9.0%
